Data published in patent US12492163B2, “9H-fluorene derivatives or their pharmaceutically acceptable salts” (priority 2020, dated 2025).

Tests used:
Format in all cases: biochemical
[1] = molecular target: horse plasma butyrylcholinesterase (eqBuChE) (Equus caballus (Horse), UniProt P81908); assay: Ellman's test, inhibition of horse plasma butyrylcholinesterase
Description: (§1) The spectrophotometric Ellman's test [Ellman et al.] modified for assays in 96-well plates was used to test the activity. Reagents: 5,5′-dithiobis-(2-nitrobenzoic acid) (DTNB), eqBuChE and butyrylthiocholine iodide (BTC) were purchased from Sigma-Aldrich (Steinheim, Germany). hBuChE was from Vivonics (Bedford, MA, USA). The enzymes were prepared by dissolving in demineralized water to a concentration of 0.384 U/ml. Stock solutions of test compounds were prepared by dissolving in DMSO to a concentration of 0.0034 M. They were then diluted with water to obtain the appropriate concentrations in the wells. In the first step of the test, 25 μl of test compound (or DMSO/water mixture at the appropriate ratio for blank samples) was incubated in 0.1 M phosphate buffer (200 μl, pH=8.0) with DTNB (20 μl; 0.0025M) and with the appropriate enzyme (20 μl; eqBuChE or hBuChE) at 25° C. (animal enzyme) or 36° C. (human enzyme). After a 5 minutes incubation period, 20 μl of BTC solution (0.00375 M) was added. After another 5 minutes, the changes in absorbance of the solutions were measured at 412 nm using a multifunctional microplate reader (EnSpire Multimode; PerkinElmer; Waltham, MA, USA). All compounds were tested at a screening concentration of 10 μM (eqBuChE) or 1 μM (hBuChE). The percentage of enzyme inhibition was calculated from the equation 100-(S/B)×100, where S and B were the enzymatic activity in the test sample well and in the well without sample, respectively. […] All reactions were performed in triplicate. IC50 values were calculated using non-linear regression (GraphPad Prism 5 [GraphPad Software, San Diego, CA, USA 5.00]) for the percentage of enzyme inhibition against the inhibitor concentration used. Tacrine and donepezil were used as reference compounds.

[2] = molecular target: Recombinant human Aβ1-42 peptide (Homo sapiens (Human), UniProt P05067); assay: Thioflavin T test, antiaggregation activity against beta-amyloid; conditions: 10 μM test compound, 1.5 μM Aβ1-42; read-out: inh. Aβ aggr. % inh
Sequence of Recombinant human Aβ1-42 peptide (P05067 672-713): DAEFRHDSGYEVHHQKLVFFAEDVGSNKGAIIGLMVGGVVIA
Description: The thioflavin T test [Levine III] was used for the determinations. Recombinant human Aβ1-42 peptide (HFIP pretreated, Merck Millipore, Darmstadt, Germany) was dissolved in DMSO to form a 75 μM stock solution. The solution was further diluted in HEPES buffer (150 mM HEPES, pH 7.4, 150 mM NaCl) to a concentration of 7.5 μM. Then, the Aβ1-42 solution was added to the test compounds (black 96-well plates were used) and diluted with thioflavin T solution (10 μM final concentration). The final mixture contained 1.5 μM Aβ1-42, 10 μM test compound, and 3% of DMSO. Fluorescence was measured every 300 s (excitation wavelength was 440 nm, emission wavelength was 490 nm) with continuous mixing between measurements. A multifunction microplate reader (Synergy H4; BioTek Instruments, Inc., Winooski, VT, USA) was used to measure the fluorescence. Fluorescence started increasing after approximately 4 hours, plateaued after 20 hours and remained virtually unchanged for the next 28 hours of incubation. The plateau-phase fluorescence intensities (in the presence and absence of test compounds) were averaged and the mean fluorescence values for the respective wells at t=0 h were subtracted from them. […] IC50 values were calculated using non-linear regression (GraphPad Prism 5 [GraphPad Software, San Diego, CA, USA 5.00]) for the percentage of aggregation inhibition against the inhibitor concentration used.

[3] = molecular target: human recombinant beta-secretase (hBACE1) (Homo sapiens (Human), UniProt P56817); assay: FRET assay, inhibition of human recombinant beta-secretase; conditions: for IC50: read-out: hBACE-1 IC50; for inhibition at 50 µM: 50 μM inhibitor concentration, read-out: hBACE-1 % inh
Sequence of human recombinant beta-secretase (hBACE1) (P56817 46-501): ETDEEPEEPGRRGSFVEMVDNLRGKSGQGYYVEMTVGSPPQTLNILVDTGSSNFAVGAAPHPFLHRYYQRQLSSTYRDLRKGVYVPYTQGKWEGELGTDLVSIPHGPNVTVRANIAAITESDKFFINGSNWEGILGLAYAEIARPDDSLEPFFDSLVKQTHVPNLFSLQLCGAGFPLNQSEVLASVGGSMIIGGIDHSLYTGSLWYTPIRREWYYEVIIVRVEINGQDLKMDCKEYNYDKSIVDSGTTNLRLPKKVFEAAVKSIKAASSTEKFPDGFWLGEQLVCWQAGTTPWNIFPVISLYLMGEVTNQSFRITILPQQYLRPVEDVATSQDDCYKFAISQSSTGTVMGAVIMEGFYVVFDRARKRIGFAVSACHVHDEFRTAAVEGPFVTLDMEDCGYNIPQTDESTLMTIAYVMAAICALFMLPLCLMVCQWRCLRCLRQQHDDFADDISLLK
Description: The FRET assay [Vassar, et al.] was used to test activity using 384-well black plates and a microplate reader (EnSpire Multimode; PerkinElmer; Waltham, MA, USA). The test was purchased from Life Technologies Polska Sp. z o.o. (Warsaw, Poland). […] Stock solutions of test compounds were prepared in DMSO and then further diluted with assay buffer (50 mM sodium acetate; pH 4.5) to the appropriate concentrations in the wells. In the first step of the test, 10 μl of the substrate (Rh-[…] quencher, based on the so-called Swedish APP mutation) was mixed with 10 μl of the test compound (or assay buffer; for blank sample). The enzyme reaction was initiated by adding 10 μl of enzyme (hBACE1, 1 U/ml). The reaction mixture was incubated at 25° C. for 60 minutes, then 10 μL of Stop solution (2.5 M sodium acetate) was added. After stopping the reaction, fluorescence was measured at 576 nm. The percentage of enzyme inhibition was calculated from the formula [1−(S60−S0)/(C60−C0)]×100, where S0 and S60 are the fluorescence of the test sample (containing the enzyme, substrate and test compound) at the start of the reaction and after 60 minutes, respectively, whereas C0 and C60 were analogous fluorescence intensities in the blank samples (containing enzyme, substrate and buffer). All test compounds were tested at a concentration of 50 μM in triplicate. […] A BACE1 IV inhibitor (Calbiochem, Merck; Nottingham, UK) [Stachel et al.] was used as a reference compound. […] IC50 values for all test compounds were calculated using non-linear regression (GraphPad Prism 5 [GraphPad Software, San Diego, CA, USA 5.00]) for the percentage of enzyme inhibition against the inhibitor concentration used.

[4] = molecular target: human plasma butyrylcholinesterase (hBuChE) (Homo sapiens (Human), UniProt P06276); assay: Ellman's test, inhibition of human plasma butyrylcholinesterase; conditions: for inhibition at 1 µM: 1 μM inhibitor concentration, read-out: hBuChE % inh
Sequence of human plasma butyrylcholinesterase (hBuChE) (P06276 29-602): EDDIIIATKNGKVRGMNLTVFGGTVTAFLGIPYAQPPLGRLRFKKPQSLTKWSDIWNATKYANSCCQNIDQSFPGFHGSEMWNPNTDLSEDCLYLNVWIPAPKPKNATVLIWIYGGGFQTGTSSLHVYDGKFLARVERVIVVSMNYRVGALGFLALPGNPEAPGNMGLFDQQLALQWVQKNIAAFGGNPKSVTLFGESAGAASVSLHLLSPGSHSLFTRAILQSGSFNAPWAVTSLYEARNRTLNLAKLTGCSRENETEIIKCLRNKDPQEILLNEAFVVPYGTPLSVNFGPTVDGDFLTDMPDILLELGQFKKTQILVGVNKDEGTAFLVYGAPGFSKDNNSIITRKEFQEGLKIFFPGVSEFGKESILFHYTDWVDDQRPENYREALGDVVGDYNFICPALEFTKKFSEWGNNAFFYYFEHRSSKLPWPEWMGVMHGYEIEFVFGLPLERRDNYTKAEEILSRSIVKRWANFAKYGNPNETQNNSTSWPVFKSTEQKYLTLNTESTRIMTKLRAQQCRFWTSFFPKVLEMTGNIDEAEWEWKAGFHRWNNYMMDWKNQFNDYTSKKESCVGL
Description: as §1

Sequence of horse plasma butyrylcholinesterase (eqBuChE) (P81908 whole entry): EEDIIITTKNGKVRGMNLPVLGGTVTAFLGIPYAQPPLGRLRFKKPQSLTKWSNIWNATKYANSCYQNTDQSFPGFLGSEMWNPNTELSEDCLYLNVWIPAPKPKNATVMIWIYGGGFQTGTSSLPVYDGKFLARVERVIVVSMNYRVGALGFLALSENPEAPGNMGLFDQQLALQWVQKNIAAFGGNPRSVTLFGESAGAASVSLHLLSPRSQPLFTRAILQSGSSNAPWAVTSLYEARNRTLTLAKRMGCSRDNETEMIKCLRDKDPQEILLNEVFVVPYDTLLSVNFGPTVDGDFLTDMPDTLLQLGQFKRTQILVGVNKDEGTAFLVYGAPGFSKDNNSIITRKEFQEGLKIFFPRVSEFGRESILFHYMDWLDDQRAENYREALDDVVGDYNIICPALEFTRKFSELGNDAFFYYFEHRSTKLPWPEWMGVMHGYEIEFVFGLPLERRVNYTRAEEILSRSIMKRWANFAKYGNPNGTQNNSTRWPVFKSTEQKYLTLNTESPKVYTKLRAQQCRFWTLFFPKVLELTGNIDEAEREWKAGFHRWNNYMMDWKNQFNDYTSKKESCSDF

Row | SMILES | IC50 [1] | inhibition at 10 µM [2] | IC50 [3] | IC50 [4] | inhibition at 1 µM [4] | inhibition at 50 µM [3]
1 | O[C@@H](CNCc1ccccc1)[C@H](Cc1ccccc1)NC1c2ccccc2-c2ccccc21 [Compound 2, (2S,3S)-3-((9H-fluoren-9-yl)amino)-1-(benzylamino)-4-phenylbutan-2-ol] | 333 nM | 86.3% | 4820 nM | 571 nM | – | –
2 | CC(C)c1cccc(CNC[C@@H](O)[C@H](Cc2ccccc2)NC2c3ccccc3-c3ccccc32)c1 [Compound 4, (2R,3S)-3-((9H-fluoren-9-yl)amino)-1-((3-isopropylbenzyl)amino)-4-phenylbutan-2-ol] | 514 nM | 83.7% | 3920 nM | 489 nM | – | –
3 | CC(C)(C)c1ccc(CNC[C@H](O)[C@H](Cc2ccccc2)NC2c3ccccc3-c3ccccc32)cc1 [Compound 5, (2S,3S)-3-((9H-fluoren-9-yl)amino)-1-((4-(tert-butyl)benzyl)amino)-4-phenylbutan-2-ol] | 803 nM | 75.6% | 6640 nM | – | 62% | –
4 | O[C@H](CNCc1cccc(C(F)(F)F)c1)[C@H](Cc1ccccc1)NC1c2ccccc2-c2ccccc21 [Compound 8, (2R,3S)-3-((9H-fluoren-9-yl)amino)-4-phenyl-1-((3-(trifluoromethyl)benzyl)amino)-butan-2-ol] | 751 nM | 72.4% | 3190 nM | 721 nM | – | –
5 | C[C@H](NC[C@@H](O)[C@H](Cc1ccccc1)NC1c2ccccc2-c2ccccc21)c1ccccc1 [Compound 9, (2R,3S)-3-((9H-fluoren-9-yl)amino)-4-phenyl-1-(((S)-1-phenylethyl)amino)butan-2-ol] | 264 nM | 63% | 20100 nM | 812 nM | – | –
6 | CC(C)(NC[C@@H](O)[C@H](Cc1ccccc1)NC1c2ccccc2-c2ccccc21)c1ccccc1 [Compound 10, (2R,3S)-3-((9H-fluoren-9-yl)amino)-4-phenyl-1-((2-phenylpropan-2-yl)amino)butan-2-ol] | 345 nM | 90.8% | 17200 nM | 1170 nM | – | –
7 | CC(C)(C)NC[C@H](O)[C@H](Cc1ccccc1)NC1c2ccccc2-c2ccccc21 [Compound 12, (2S,3S)-3-((9H-fluoren-9-yl)amino)-1-(tert-butylamino)-4-phenylbutan-2-ol] | 4840 nM | 67.2% | – | – | 58.8% | 48.7%
8 | CC(C)(C)CNC[C@@H](O)[C@H](Cc1ccccc1)NC1c2ccccc2-c2ccccc21 [Compound 13, (2R,3S)-3-((9H-fluoren-9-yl)amino)-1-(neopentylamino)-4-phenylbutan-2-ol] | 1180 nM | 80.2% | 8590 nM | – | 61.3% | –
9 | O[C@H](CNCC(F)(F)F)[C@H](Cc1ccccc1)NC1c2ccccc2-c2ccccc21 [Compound 14, (2R,3S)-3-((9H-fluoren-9-yl)amino)-4-phenyl-1-((2,2,2-trifluoroethyl)amino)butan-2-ol] | 1080 nM | 82.5% | – | – | 67.9% | 36.8%
10 | O[C@@H](CNCC1CC1)[C@H](Cc1ccccc1)NC1c2ccccc2-c2ccccc21 [Compound 15, (2S,3S)-3-((9H-fluoren-9-yl)amino)-1-((cyclopropylmethyl)amino)-4-phenylbutan-2-ol] | 975 nM | – | – | 1030 nM | – | –
11 | CC(C)(C)c1ccc(CNC[C@H](O)[C@H](Cc2ccccc2)NC(=O)C2c3ccccc3-c3ccccc32)cc1 [Compound 18, N-((2S,3S)-4-((4-(tert-butyl)benzyl)amino)-3-hydroxy-1-phenylbutan-2-yl)-9H-fluorene-9-carboxamide] | 1220 nM | 63.5% | 1120 nM | – | 55.6% | –
12 | O=C(CC1c2ccccc2-c2ccccc21)N[C@@H](Cc1ccccc1)[C@H](O)CNCc1cccc(C(F)(F)F)c1 [Compound 21, 2-(9H-fluoren-9-yl)-N-((2S,3R)-3-hydroxy-1-phenyl-4-((3-(trifluoromethyl)benzyl)-amino)butan-2-yl)acetamide] | 2020 nM | < 10% | 2120 nM | – | 54.3% | –
13 | CC(C)(NC[C@@H](O)[C@H](Cc1ccccc1)NC(=O)C1c2ccccc2-c2ccccc21)c1ccccc1 [Compound 24, N-((2S,3R)-3-hydroxy-1-phenyl-4-((2-phenylpropan-2-yl)amino)butan-2-yl)-9H-fluorene-9-carboxamide] | 2840 nM | 61% | 5150 nM | – | 21.4% | –
14 | CC(C)(NC[C@@H](O)[C@H](Cc1ccccc1)NC(=O)CC1c2ccccc2-c2ccccc21)c1ccccc1 [Compound 25, 2-(9H-fluoren-9-yl)-N-((2S,3R)-3-hydroxy-1-phenyl-4-((2-phenylpropan-2-yl)amino)-butan-2-yl)acetamide] | 1270 nM | 63% | 4960 nM | – | 71.7% | –
15 | CC(C)(C)CNC[C@@H](O)[C@H](Cc1ccccc1)NC(=O)C1c2ccccc2-c2ccccc21 [Compound 26, N-((2S,3R)-3-hydroxy-4-(neopentylamino)-1-phenylbutan-2-yl)-9H-fluorene-9-carboxamide] | 1090 nM | 39.5% | – | – | 61.1% | 54.5%
